pIC50: −log10 of the molar value. Some results are limits rather than exact numbers.

One test deals with T1, active p38 alpha enzyme (Upstate Biotechnology) (Homo sapiens, UniProt Q16539).
T1 construct: purchased Upstate Biotechnology
T1 sequence (Q16539 whole entry): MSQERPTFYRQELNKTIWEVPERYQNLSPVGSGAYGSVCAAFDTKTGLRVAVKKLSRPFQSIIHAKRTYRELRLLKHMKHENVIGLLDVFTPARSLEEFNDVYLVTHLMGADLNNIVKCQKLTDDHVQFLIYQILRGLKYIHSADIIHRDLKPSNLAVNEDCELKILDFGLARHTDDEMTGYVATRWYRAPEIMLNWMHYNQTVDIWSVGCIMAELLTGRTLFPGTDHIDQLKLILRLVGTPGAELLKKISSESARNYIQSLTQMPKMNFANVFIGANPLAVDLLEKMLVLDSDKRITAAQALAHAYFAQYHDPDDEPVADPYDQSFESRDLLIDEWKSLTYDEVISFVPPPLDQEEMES
The test can be described thus: p38α biochemical assay (ATP turnover, luminescent detection, Cambrex PKlight). Particulars: p38α biochemical assay, Table 1 Biological Activity. The gist of the method: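 In this kinase reaction, p38α used MapkapK2 as phosphorylation substrate at low ATP (1.4 uM final) over 2 hours at 30C, and activity was followed as ATP turnover by luminescence.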
Compound `CC(C)NC(=O)c1csc(-c2oc(CN3CCN(C(=O)c4cc(O)ccc4[N+](=O)[O-])CC3)nc2-c2ccc(F)cc2)n1` [Example 470] showed a pIC50 of less than 6.00. In the case of `COc1ccc(C(=O)NCc2onc(-c3ccc(F)cc3)c2-c2nc(C(=O)NC(C)C)cs2)c(OC)c1OC` [Example 761], the pIC50 was less than 6.00. With `Cc1onc(-c2ccc(Cl)cc2)c1-c1cc(C)n(C(=O)NC(C)C)n1` [Example 16, 3-|3-(4-Chloro-phenyl)-5-methyl-isoxazol-4-yl|-5-methyl-pyrazole-1-carboxylic acid isopropylamide], the pIC50 was no less than 6.00.

With `CC(C)NC(=O)c1csc(-c2c(-c3ccc(F)cc3)noc2CNC(=O)Cc2ccccc2O)n1` [Example 618], the pIC50 is less than 6.00. In turn, `CC(C)NC(=O)c1csc(-c2c(-c3ccc(F)cc3)noc2CNC(=O)c2cc(C(C)C)cc(C(C)C)c2O)n1` [Example 779] gave a pIC50 of less than 6.00. The compound `CC(C)NC(=O)c1csc(-c2oc(CN3CCN(C(=O)c4ccccc4Cc4ccccc4)CC3)nc2-c2ccc(F)cc2)n1` [Example 524] had a pIC50 of no less than 6.00. The compound `CC(C)NC(=O)c1csc(-c2oc(CN3CCN(C(=O)C4CCc5ccccc54)CC3)nc2-c2ccc(F)cc2)n1` (stereo not drawn) [Example 401] had a pIC50 of no less than 6.00.

For the compound `CC(C)NC(=O)c1csc(-c2oc(CN3CCN(C(=O)c4cc(Cl)ccc4O)CC3)nc2-c2ccc(F)cc2)n1` [Example 433], the pIC50 was no less than 6.00. Compound `CC(C)NC(=O)c1csc(-c2oc(CN3CCN(C(=O)c4ccc(Cl)c(Br)c4)CC3)nc2-c2ccc(F)cc2)n1` [Example 558] gave a negative logarithm of the IC50 (pIC50) of less than 6.00. `CCC(C(=O)NCc1nc(-c2ccc(F)cc2)c(-c2nc(C(=O)NC(C)C)cs2)o1)c1ccccc1` (stereo not drawn) [Example 174]: the negative logarithm of the IC50 (pIC50) was less than 6.00. Take `CC(C)NC(=O)c1csc(-c2c(-c3ccc(F)cc3)noc2CNC(=O)c2cccc(C#N)c2)n1` [Example 605]: the pIC50 is less than 6.00. For the compound `Cc1cccc(C(=O)NCc2onc(-c3ccc(F)cc3)c2-c2nc(C(=O)NC(C)C)cs2)c1[N+](=O)[O-]` [Example 696], the pIC50 is less than 6.00. The compound `CCOC(=O)CC(=O)NCc1onc(-c2ccc(F)cc2)c1-c1nc(C(=O)NC(C)C)cs1` [Example 595] showed a negative logarithm of the IC50 (pIC50) of less than 6.00. In turn, `CC(C)NC(=O)c1csc(-c2c(-c3ccc(F)cc3)noc2CNC(=O)c2cccc(F)c2)n1` [Example 602] showed a pIC50 of less than 6.00. The compound `CC(C)NC(=O)c1csc(-c2c(-c3ccc(F)cc3)noc2CNC(=O)c2cc3cc(Cl)ccc3o2)n1` [Example 739] gave a pIC50 of less than 6.00. In turn, `CC(C)NC(=O)c1csc(-c2c(-c3ccc(F)cc3)noc2CNC(=O)CNC(=O)OC(C)(C)C)n1` [Example 676] showed a negative-log IC50 (pIC50) of less than 6.00. Same read-out and setting: next, `Cc1ccc(C(=O)NCc2nc(-c3ccc(F)cc3)c(-c3nc(C(=O)NC(C)C)cs3)o2)cc1C` [Example 139]: less than 6.00.

Regarding `CC(C)NC(=O)c1csc(-c2c(-c3ccc(F)cc3)noc2CNC(=O)c2cccnc2)n1` [Example 587], the negative logarithm of the IC50 (pIC50) is less than 6.00. Regarding `CC(C)NC(=O)c1csc(-c2oc(CNC(=O)c3ccccc3)nc2-c2ccc(F)cc2)n1` [Example 111], the pIC50 is less than 6.00.

For the compound `CC(C)NC(=O)c1csc(-c2oc(CN3CCN(C(=O)c4cccc(O)c4O)CC3)nc2-c2ccc(F)cc2)n1` [Example 384], the pIC50 was no less than 6.00. `CC(C)NC(=O)c1csc(-c2oc(CNC(=O)c3ccc(F)c(F)c3)nc2-c2ccc(F)cc2)n1` [Example 161] gave a negative logarithm of the IC50 (pIC50) of less than 6.00. In turn, `CC(C)NC(=O)c1csc(-c2c(-c3ccc(F)cc3)noc2CNC(=O)c2ccncc2Cl)n1` [Example 631] gave a negative-log IC50 (pIC50) of no less than 6.00.

In turn, `CCOc1ccc2ccccc2c1C(=O)NCc1nc(-c2ccc(F)cc2)c(-c2nc(C(=O)NC(C)C)cs2)o1` [Example 297] gave a pIC50 of less than 6.00.

Staying with this test, now noted: p38α kinase; Table 1 Biological Activity.
Take `Cc1cccc(NCc2onc(-c3ccc(F)cc3)c2-c2nc(C(=O)NC(C)C)cs2)n1` [Example 1635]: the pIC50 is less than 6.00. For `CC(C)NC(=O)c1csc(-c2c(-c3ccc(F)cc3)noc2CN2CCN(CC3CCCCC3)CC2)n1` [Example 1581], the pIC50 is less than 6.00.

Consider `CC(C)NC(=O)c1csc(-c2c(-c3ccc(F)cc3)noc2CNCc2ccc(Cl)cc2Cl)n1` [Example 1496], for which the pIC50 was less than 6.00. `CCN(CCO)Cc1nc(-c2ccc(F)cc2)c(-c2nc(C(=O)NC(C)C)cs2)o1` [Example 1195] gave a pIC50 of less than 6.00. Same read-out and setting: the figure for `CC(C)NC(=O)c1csc(-c2oc(CN3CCCC3CO)nc2-c2ccc(F)cc2)n1` (stereo not drawn) [Example 1200] is less than 6.00. The compound `CC(C)CNC(=O)c1csc(-c2c(-c3ccc(F)cc3)n[nH]c2C2CCNCC2)n1` [Example 2040] showed a pIC50 of less than 6.00. Still for that read-out and setting: the figure for `CC(C)NC(=O)c1csc(-c2oc(CNCCCc3ccccc3)nc2-c2ccc(F)cc2)n1` [Example 1119] is less than 6.00; for `CCCN(CCC)Cc1nc(-c2ccc(F)cc2)c(-c2nc(C(=O)NC(C)C)cs2)o1` [Example 1203] it is less than 6.00; for `CC(C)NC(=O)c1csc(-c2c(-c3ccc(F)cc3)noc2CNc2ccc(Cl)c(Cl)c2)n1` [Example 1682] it is less than 6.00.

As to `Cc1nc(-c2ccc(F)cc2)c(-c2nc(C(=O)NC3CCCCC3)cs2)s1` [Example 1732], the pIC50 is no less than 6.00.

Turning to `Cc1nc(-c2ccc(F)cc2)c(-c2nc(C(=O)NCc3ccc(Cl)cc3)cs2)s1` [Example 1787], the pIC50 is no less than 6.00. On to `Cc1nc(-c2ccc(F)cc2)c(-c2nc(C(=O)NC3CCCc4ccccc43)cs2)s1` (stereo not drawn) [Example 1701], for which the pIC50 was less than 6.00.

In turn, `CC(C)NC(=O)c1csc(-c2c(-c3ccc(F)cc3)n[nH]c2C2CCN(C(=O)C3CC(O)CN3C(=O)OC(C)(C)C)CC2)n1` (stereo not drawn) [Example 1031] gave a pIC50 of no less than 6.00. Same read-out and setting: the figure for `CC(C)NC(=O)c1csc(-c2oc(CNc3ccccc3-n3cccc3)nc2-c2ccc(F)cc2)n1` [Example 1354] is less than 6.00.

As to `CC(C)NC(=O)c1csc(-c2oc(CNCCC#N)nc2-c2ccc(F)cc2)n1` [Example 1058], the pIC50 is less than 6.00. Consider `CC(C)NC(=O)c1csc(-c2c(-c3ccc(F)cc3)noc2CNCC2CC2)n1` [Example 1392], for which the negative-log IC50 (pIC50) is less than 6.00. Same read-out and setting: the figure for `Cc1cc(C(=O)N2CCC(c3[nH]nc(-c4ccc(F)cc4)c3-c3nc(C(=O)NC(C)C)cs3)CC2)cc(Cl)n1` [Example 906] is less than 6.00. Take `Cc1nc(-c2ccc(F)cc2)c(-c2nc(C(=O)Nc3ncccc3OCc3ccccc3)cs2)s1` [Example 2021]: the pIC50 is less than 6.00.

In the case of `CC(C)NC(=O)c1csc(-c2oc(CN3CCCC(C(N)=O)C3)nc2-c2ccc(F)cc2)n1` (stereo not drawn) [Example 1222], the pIC50 is less than 6.00. On the same count and under the same terms, the figure for `Cc1nc(-c2ccc(F)cc2)c(-c2nc(C(=O)NCc3ccc4c(c3)OCO4)cs2)s1` [Example 1796] is no less than 6.00; for `CC(C)NC(=O)c1csc(-c2oc(CN3CCCC(c4ccc(C(F)(F)F)cc4)C3)nc2-c2ccc(F)cc2)n1` (stereo not drawn) [Example 1303] it is less than 6.00; for `CC(C)NC(=O)c1csc(-c2c(-c3ccc(F)cc3)n[nH]c2C2CCN(C(=O)c3cc(F)c(F)cc3Cl)CC2)n1` [Example 972] it is less than 6.00. `Cc1cccc(N2CCN(Cc3nc(-c4ccc(F)cc4)c(-c4nc(C(=O)NC(C)C)cs4)o3)CC2)c1C` [Example 1262] had a pIC50 of less than 6.00. Compound `Cc1nc(-c2ccc(F)cc2)c(-c2nc(C(=O)N3CCCC(C(N)=O)C3)cs2)s1` (stereo not drawn) [Example 1872] showed a pIC50 of less than 6.00. `CC(C)NC(=O)c1csc(-c2c(-c3ccc(F)cc3)n[nH]c2C2CCN(C(=O)c3cc(Cl)ccn3)CC2)n1` [Example 869]: the negative-log IC50 (pIC50) is no less than 6.00. With `N#CCCN(Cc1ccccc1)C(=O)c1csc(-c2c(-c3ccc(F)cc3)n[nH]c2C2CCNCC2)n1` [Example 2132], the negative-log IC50 (pIC50) was less than 6.00.

`CC(C)NC(=O)c1csc(-c2c(-c3ccc(F)cc3)noc2CNCCN(C)C)n1` [Example 1402] gave a pIC50 of less than 6.00. On to `Cc1nc(-c2ccc(F)cc2)c(-c2nc(C(=O)NCCN3CCCCC3)cs2)s1` [Example 1763], for which the pIC50 is less than 6.00. As for `Cc1ccccc1CCC(=O)N1CCC(c2[nH]nc(-c3ccc(F)cc3)c2-c2nc(C(=O)NC(C)C)cs2)CC1` [Example 886], the pIC50 was less than 6.00.

Consider `CC(C)NC(=O)c1csc(-c2oc(CN(CCO)CCO)nc2-c2ccc(F)cc2)n1` [Example 1205], for which the pIC50 was less than 6.00. As to `CC(C)NC(=O)c1csc(-c2c(-c3ccc(F)cc3)noc2CNC(=O)c2ccccc2C(=O)c2ccc(F)cc2)n1` [Example 798], the pIC50 is less than 6.00. Compound `CCOC(=O)N1CCC(NC(=O)c2csc(-c3sc(C)nc3-c3ccc(F)cc3)n2)CC1` [Example 1816] showed a pIC50 of less than 6.00.

Consider `O=C(NCCN1CCOCC1)c1csc(-c2c(-c3ccc(F)cc3)n[nH]c2C2CCNCC2)n1` [Example 2087], for which the pIC50 is less than 6.00. Take `Cc1ccc(NCc2onc(-c3ccc(F)cc3)c2-c2nc(C(=O)NC(C)C)cs2)cc1C` [Example 1641]: the pIC50 is less than 6.00. As for `Cc1cnc(CNCc2nc(-c3ccc(F)cc3)c(-c3nc(C(=O)NC(C)C)cs3)o2)cn1` [Example 1102], the pIC50 is less than 6.00. The same measure, in the same setting: next, `Cc1nc(-c2ccc(F)cc2)c(-c2nc(C(=O)Nc3ccc(F)cc3F)cs2)s1` [Example 1979]: less than 6.00. Consider `CC(C)NC(=O)c1csc(-c2c(-c3ccc(Cl)cc3)ncn2C2CCNCC2)n1` [Example 2162, 2-|5-(4-Chloro-phenyl)-3-piperidin-4-yl-3H-imidazol-4-yl|-thiazole-4-carboxylic acid isopropylamide], for which the pIC50 was less than 6.00.

In the case of `COc1ccc(O)c(C(=O)N2CCC(c3[nH]nc(-c4ccc(F)cc4)c3-c3nc(C(=O)NC(C)C)cs3)CC2)c1` [Example 901], the negative-log IC50 (pIC50) is less than 6.00. On the same count and under the same terms, next, `COc1ccc(CNCc2onc(-c3ccc(F)cc3)c2-c2nc(C(=O)NC(C)C)cs2)cc1O` [Example 1500]: less than 6.00; `CC(C)NC(=O)c1csc(-c2oc(CNCc3ccc4c(c3)OCO4)nc2-c2ccc(F)cc2)n1` [Example 1142]: less than 6.00.

(Values after patent publication US20060252807A1, “Novel ortho-terphenyl inhibitors of p38 kinase and methods of treating inflammatory disorders” (Kalypsys, Inc., priority 2005, published 2006).)
